The values below come from ChEMBL document CHEMBL1142017, “Structure-activity relationships and sub-type selectivity in an oxabicyclic estrogen receptor alpha/beta agonist scaffold” (Bioorg Med Chem Lett, 2005).

Experiment [1] has as its target T1, Estrogen receptor beta (Homo sapiens, UniProt Q92731).
Description: (§1) In vitro agonist activity for estrogen receptor beta expressed in COS-1 cells
Another experiment deals with T2, Estrogen receptor (Homo sapiens, UniProt P03372).
T2 sequence (P03372 whole entry): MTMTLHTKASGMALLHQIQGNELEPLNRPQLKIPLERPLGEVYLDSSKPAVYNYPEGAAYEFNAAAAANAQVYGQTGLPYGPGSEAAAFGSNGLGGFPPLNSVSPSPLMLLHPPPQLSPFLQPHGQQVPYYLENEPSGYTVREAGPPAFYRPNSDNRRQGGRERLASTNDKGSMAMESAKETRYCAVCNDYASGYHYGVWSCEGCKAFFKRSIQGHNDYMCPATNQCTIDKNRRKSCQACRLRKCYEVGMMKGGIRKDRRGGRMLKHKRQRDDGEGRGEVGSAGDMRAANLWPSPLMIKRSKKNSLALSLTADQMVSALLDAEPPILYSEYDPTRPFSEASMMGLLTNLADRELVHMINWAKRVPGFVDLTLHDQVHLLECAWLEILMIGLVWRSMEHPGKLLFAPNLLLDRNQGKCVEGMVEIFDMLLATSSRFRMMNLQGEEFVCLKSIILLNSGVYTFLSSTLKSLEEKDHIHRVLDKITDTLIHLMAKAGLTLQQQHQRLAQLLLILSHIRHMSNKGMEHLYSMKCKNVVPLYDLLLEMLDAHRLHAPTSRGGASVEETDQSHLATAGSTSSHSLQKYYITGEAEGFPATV

Experiment [2] addresses T3, Estrogen receptor (Rattus norvegicus) (UniProt P06211+Q62986). In words: Effect on uterine wet weight in ovariectomized female rats after 30 mg/kg oral gavage dose. In kind it is functional, organism-based. Also on record: dose 30 mg/kg.
In experiment [3] the target is T1, Estrogen receptor beta. Particulars: cos-1.
Description: as §1
Experiment [4] has as its target T3, Estrogen receptor (Rattus norvegicus). The experiment in a line: Effect on uterine wet weight in ovariectomized female rats. In kind it is functional.

The structures appear in SMILES notation.

T1 sequence (Q92731 whole entry): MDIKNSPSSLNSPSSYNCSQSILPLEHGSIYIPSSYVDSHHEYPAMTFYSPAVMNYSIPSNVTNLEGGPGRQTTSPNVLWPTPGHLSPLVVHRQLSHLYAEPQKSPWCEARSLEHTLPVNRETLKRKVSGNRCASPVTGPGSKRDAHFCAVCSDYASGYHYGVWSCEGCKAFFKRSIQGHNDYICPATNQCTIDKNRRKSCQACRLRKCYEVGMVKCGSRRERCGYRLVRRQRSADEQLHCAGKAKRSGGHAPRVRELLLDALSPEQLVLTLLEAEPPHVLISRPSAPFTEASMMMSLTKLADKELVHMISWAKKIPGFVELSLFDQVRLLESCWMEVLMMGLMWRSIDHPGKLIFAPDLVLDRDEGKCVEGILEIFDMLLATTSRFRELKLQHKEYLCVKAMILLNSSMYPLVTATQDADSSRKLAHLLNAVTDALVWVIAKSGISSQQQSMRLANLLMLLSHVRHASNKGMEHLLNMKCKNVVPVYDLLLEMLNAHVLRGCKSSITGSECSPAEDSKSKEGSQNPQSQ

Take `CC1=CC[C@@]2(CO)CO[C@@H](c3ccc(O)cc3O)[C@@H]1C2` (racemic): the EC50 on Estrogen receptor beta [1] was determined as 275 nM; on Estrogen receptor, 173 nM.

For `CC1=CC[C@@]2(CO)CO[C@@H](c3ccc(O)cc3F)[C@]1(C)C2` (racemic), the EC50 at Estrogen receptor beta [1] worked out at 12 nM; at Estrogen receptor, 50 nM.

In the case of `CC1=CC[C@@H]2C[C@H]1[C@H](c1ccc(O)c(C)c1)OC2(C)C` (stereo in doubt; (+)-32), the EC50 amounted to 318 nM on Estrogen receptor beta [1] and 143 nM at Estrogen receptor.

Regarding `CC1=CC[C@@]2(CO)CO[C@@H](c3ccc(O)cc3)[C@]1(C)C2` (racemic), the EC50 at Estrogen receptor beta [1] was found to be 39 nM; at Estrogen receptor, 203 nM.

As to `CC1=CC[C@@H]2C[C@H]1[C@H](c1ccc(O)cc1)OC2(C)C` (stereo in doubt; (+)-31), the EC50 at Estrogen receptor beta [1] was found to be 418 nM; at Estrogen receptor it was 203 nM.

Compound `C[C@]12CC[C@@H]3c4ccc(OS(=O)(=O)O)cc4CC[C@H]3[C@@H]1CCC2=O` came in with an ED50 in experiment [2] of 0.16 mg/kg/day.

`CC1=CC[C@@]2(CO)CO[C@@H](c3ccc(O)cc3F)[C@@H]1C2` (stereo in doubt; (-)-30): the EC50 stood at 3.1 nM on Estrogen receptor beta [1] and 19 nM at Estrogen receptor.

Regarding `CC1=CC[C@@]2(CO)CO[C@@H](c3ccc(O)c(C)c3)[C@@H]1C2` (racemic), the EC50 at Estrogen receptor beta [1] was determined as 305 nM; at Estrogen receptor, 137 nM.

For the compound `COc1cc([C@@H]2OC[C@]3(CO)CC=C(C)[C@H]2C3)ccc1O` (racemic), the results for the EC50 on Estrogen receptor beta [1] and on Estrogen receptor were 3050 nM and 1980 nM, respectively.

With `CC1=CC[C@@]2(CO)CO[C@@H](c3ccc(O)c(F)c3)[C@@H]1C2` (stereo in doubt; (+)-27), the figures for the EC50 on Estrogen receptor beta [1] and on Estrogen receptor were 40 nM and 2.6 nM, respectively.

Turning to `CC1=CC[C@@]2(CO)CO[C@@H](c3ccc(O)c(Br)c3)[C@@H]1C2` (racemic), the results for the EC50 on Estrogen receptor beta [1] and on Estrogen receptor were 485 nM and 336 nM, respectively.

Consider `CC1=CC[C@@H]2C[C@H]1[C@H](c1ccc(O)cc1)OC2(C)C` (stereo in doubt), for which the EC50 on Estrogen receptor beta [1] worked out at 195 nM; on Estrogen receptor it was 211 nM.

`CC1=CC[C@@]2(CO)CO[C@@H](c3ccc(O)c(Cl)c3)[C@@H]1C2` (racemic): the results for the EC50 at Estrogen receptor beta [1] and on Estrogen receptor were 197 nM and 36 nM, respectively.

Consider `CC1=CC[C@]2(O)C[C@H]1[C@H](c1ccc(O)cc1)OC2(C)C` (racemic), for which the EC50 on Estrogen receptor beta [1] stood at 9.2 nM; on Estrogen receptor it was 1.6 nM.

On to `CC1=CC[C@@]2(CO)CO[C@@H](c3ccc(O)c(F)c3)[C@@H]1C2` (stereo in doubt; (-)-28), for which the EC50 at Estrogen receptor beta [1] was 57 nM; on Estrogen receptor, 254 nM.

Take `CC1=CC[C@@]2(CO)CO[C@@H](c3ccc(O)c(F)c3)[C@]1(C)C2` (racemic): the EC50 came to 6 nM on Estrogen receptor beta [1] and 68 nM at Estrogen receptor.

For the compound `CC1=CC[C@@]2(O)CO[C@@H](c3ccc(O)cc3)[C@@H]1C2(C)C` (racemic), the EC50 on Estrogen receptor beta [1] worked out at 24 nM; on Estrogen receptor, 59 nM.

Consider `CC1=CC(C)(C)[C@@]2(O)CO[C@@H](c3ccc(O)cc3Cl)[C@@H]1C2` (racemic), for which the EC50 turned out to be 25 nM at Estrogen receptor beta [1] and 21 nM at Estrogen receptor.

As to `CC1=CC[C@@H]2C[C@H]1[C@H](c1ccc(O)c(C)c1)OC2(C)C` (stereo in doubt), the EC50 came to 218 nM on Estrogen receptor and 318 nM at Estrogen receptor beta [3].

`CC1=CC[C@]2(O)C[C@H]1[C@H](c1ccc(O)cc1F)OC2(C)C` (racemic): the figures for the concentration giving a half-maximal response (EC50) on Estrogen receptor beta [1] and on Estrogen receptor were 1.4 nM and 1.1 nM, respectively.

As for `CC1=CC[C@@]2(CO)CO[C@@H](c3ccc(O)cc3Cl)[C@@H]1C2` (racemic), the EC50 was 5.3 nM at Estrogen receptor beta [1] and 11 nM on Estrogen receptor.

As to `CC1=CC[C@@]2(CO)CO[C@@H](c3ccc(O)c(F)c3)[C@@H]1C2` (racemic), the results for the EC50 at Estrogen receptor beta [1] and on Estrogen receptor were 25 nM and 4.6 nM, respectively.

With `CC1=CC[C@]2(O)C[C@H]1[C@H](c1ccc(O)cc1Cl)OC2(C)C` (racemic), the results for the EC50 at Estrogen receptor beta [1] and at Estrogen receptor were 6 nM and 1 nM, respectively.

As for `CC1=CC[C@]2(O)C[C@H]1[C@H](c1ccc(O)c(F)c1)OC2(C)C` (racemic), the EC50 is 7.2 nM at Estrogen receptor beta [1] and 0.6 nM on Estrogen receptor.

In the case of `CC1=CC[C@@]2(CO)CO[C@@H](c3ccc(O)cc3F)[C@@H]1C2` (racemic), the EC50 at Estrogen receptor beta [1] turned out to be 10 nM; on Estrogen receptor, 39 nM.

Take `CC1=CC[C@@]2(CO)CO[C@@H](c3ccc(O)cc3C)[C@@H]1C2` (racemic): the EC50 on Estrogen receptor beta [1] worked out at 79 nM; on Estrogen receptor it was 92 nM.

For `CC1=CC[C@@]2(CO)CO[C@@H](c3ccc(O)cc3Cl)[C@@H]1C2` (stereo in doubt; (+)-25), the EC50 at Estrogen receptor beta [1] came out at 46 nM; at Estrogen receptor it was 138 nM.

Take `CC1=CC[C@@]2(CO)CO[C@@H](c3ccc(O)c(O)c3)[C@@H]1C2` (racemic): the values for the EC50 at Estrogen receptor beta [1] and at Estrogen receptor were 3160 nM and 2410 nM, respectively.

On to `CC1=CC[C@@]2(CO)CO[C@@H](c3cc(C)c(O)c(C)c3)[C@@H]1C2` (racemic), for which the concentration for a half-maximal effect (EC50) at Estrogen receptor beta [1] was found to be 2830 nM; on Estrogen receptor it was 743 nM.

`CC1=CC(C)(C)[C@@]2(O)CO[C@@H](c3ccc(O)cc3)[C@@H]1C2` (racemic): the EC50 on Estrogen receptor beta [1] came out at 183 nM; on Estrogen receptor, 141 nM.

Consider `CC1=CC[C@@]2(CO)CO[C@@H](c3ccc(O)cc3Cl)[C@@H]1C2` (stereo in doubt; (-)-26) [listing 1 of 2 here], for which the EC50 on Estrogen receptor beta [1] is 6.1 nM; at Estrogen receptor, 18 nM.

For `CC1=CC[C@@]2(CO)CO[C@@H](c3ccc(O)cc3Cl)[C@]1(C)C2` (racemic), the EC50 was 67 nM at Estrogen receptor beta [1] and 43 nM at Estrogen receptor.

Consider `CC1=CC[C@@]2(CO)CO[C@@H](c3ccc(O)cc3Cl)[C@@H]1C2` (stereo in doubt; (-)-26) [listing 2 of 2 here], for which the ED50 in experiment [4] came out at 3.44 mg/kg/day.

In the case of `CC1=CC[C@@]2(CO)CO[C@@H](c3ccc(O)cc3F)[C@@H]1C2` (stereo in doubt; (+)-29), the EC50 at Estrogen receptor beta [1] came to 180 nM; at Estrogen receptor it was 21 nM.

In general, EC50 refers to the concentration needed to bring the measured effect to its halfway point. Higher therefore signals lower potency in that assay. As usually defined, the ED50 is the midpoint of the dose-response relation. A lower ED50 goes with greater potency.
